Holding throughout (assay): NCI tumour cell line growth inhibition, 48 h
Test [1] has as its system BT-549 breast.
Test [2] deals with HS 578T breast.
In test [3] the test system is K-562 leukemia.
Test [4] has as its system LOX IMVI melanoma.
Test [5] has as its system NCI-H23 lung.
The test system of test [6] is NCI-H522 lung.
Test [7] has as its system OVCAR-5 ovarian.
In test [8] the test system is SF-539 CNS.
Test [9] has as its system SK-MEL-5 melanoma.
In test [10] the test system is U251 CNS.

Each structure is given as a SMILES string. Values joined by “and” are separate entries in the source; they are usually repeats but may differ in a detail not shown here. Equal values may be shown once.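 Cells were grown in 96-well plates and exposed to each compound for 48 hours at five concentrations; endpoints were interpolated linearly between bracketing concentrations, or set to the highest concentration if not reached. At the GI50, growth is halved. TGI: total growth inhibition.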 Where a SMILES comes first, the peptide text is derived from it. [ ]: non-standard residue; d: D form. Orn = NCCC[CH](N)C(=O)O

Our source for the GI50 and TGI values is PubChem BioAssay (NCI).

With `Cc1cc(Cl)ccc1Nc1nc(C(F)(F)F)ccc1C(=O)N/N=C/c1c(Cl)cccc1Cl`, the GI50 in test [1] is 194 nM; in test [2], 630 nM; in [3], 253 nM; in test [4], 257 nM; in [5], 489 nM; in test [6] it was 306 nM. Moreover, the GI50 in test [7] is 888 nM; in test [8], 638 nM; in [9] it was 573 nM; in [10], 245 nM. The TGI is 675 nM in [1]; > 30000 nM in [2]; > 100000 nM in [4]; > 100000 nM in test [5]; > 100000 nM in test [7]; 4070 nM in test [8]. Besides, the TGI in [9] is 2440 nM; in test [10], > 70800 nM.

Regarding `CCN(CC)CCCC(C)Nc1ccnc2cc(Cl)c(SCc3ccccc3)cc12` (stereo not given), the GI50 was 1780 nM in [1]; 1970 nM in [2]; 266 nM in test [3]; 199 nM in test [4]; 1550 nM in test [5]; 580 nM in test [6]. Also, the GI50 was 1730 nM in [7], 626 nM in test [8], 1310 nM in test [9] and 1080 nM in [10]. The TGI was determined as 3280 nM in test [1]; 5730 nM in test [2]; 702 nM in test [3]; 552 nM in test [4]; 3570 nM in [5]; 2010 nM in test [6]. Besides, the TGI in test [7] amounted to 3700 nM; in [8] it was 2040 nM; in test [9], 2580 nM; in test [10], 2390 nM.

Turning to `COc1ccc(/C=C/C(=O)c2ccc(NC(=O)CSc3nnc(-c4cc(OC)c(OC)c(OC)c4)o3)cc2)cc1`, the GI50 in [1] was 1400 nM; in [2] it was 2650 nM; in [4] it was 320 nM; in [5], 1880 nM; in [6], 1550 nM; in test [7], 1720 nM. Besides, the values for the GI50 in test [8], in test [9] and in test [10] were 1640 nM, 2140 nM and 1680 nM, respectively. Moreover, the TGI turned out to be 2810 nM in test [1]; 7760 nM in test [2]; 1280 nM in test [4]; 3970 nM in [5]; 3220 nM in [6]; 3300 nM in [7]. Besides, the TGI in [8] was found to be 3030 nM; in [9] it was 5240 nM; in test [10], 3180 nM.

As to `CC(C)CC1NC(=O)C(CCCN)NC(=O)C(C(C)C)NC(=O)C2CCCN2C(=O)C(Cc2ccccc2)NC(=O)C(CC(C)C)NC(=O)C(CCCN)NC(=O)C(C(C)C)NC(=O)C2CCCN2C(=O)C(Cc2ccccc2)NC1=O` (stereo not given) (cyclo(FPV[Orn]LFPV[Orn]L); configuration not given here), the GI50 in test [1] was 32.6 nM and 45.9 nM; in test [2], 16.6 nM and 45.3 nM; in [3], < 3.25 nM; in test [4] it was 10.1 nM and 22.1 nM; in [5], 8.35 nM and 19.2 nM; in [6], 7.67 nM. Further, the GI50 is 11.7 nM in test [7]; 14.6 nM and 47.7 nM in test [8]; 7.25 nM in test [9]; < 3.25 nM in test [10]. In addition, the TGI in test [1] was 261 nM and 271 nM; in [2], 784 nM and 1640 nM; in test [3] it was 56.5 nM; in test [4], 47.4 nM and 54 nM; in test [5], 101 nM and 175 nM; in test [6] it was 37.6 nM and 95.8 nM. Further, the TGI is 968 nM and 1980 nM in [7]; 421 nM and 1050 nM in [8]; 19.9 nM and 22.9 nM in test [9]; 140 nM and 117 nM in [10].

With `N=C(N)c1ccc(-c2ccc(-c3ccco3)o2)cc1F`, the GI50 in test [1] is 2190 nM; in test [2], 1530 nM; in [3], 1580 nM; in [4] it was 1600 nM; in test [6], 2310 nM; in test [7], 2700 nM. For the same compound, the GI50 in test [8] is 1600 nM; in [9] it was 1640 nM; in test [10], 1720 nM. Besides, the TGI is 5110 nM in test [1]; 4700 nM in test [2]; 3820 nM in test [3]; 3050 nM in test [4]; 6000 nM in test [6]; 10300 nM in [7]. The TGI in test [8] turned out to be 3250 nM; in test [9], 3040 nM; in test [10], 3550 nM.

As for `C[C@H]1[C@H](C)CC[C@]2(C(=O)O)CC[C@]3(C)C(=CC[C@@H]4[C@@]5(C)CC[C@H](OC(=O)/C=C\c6ccc(O)cc6)C(C)(C)[C@@H]5CC[C@]43C)[C@H]12`, the GI50 was 9580 nM in [1]; 3100 nM in test [2]; 3860 nM in [4]; 3480 nM in test [5]; 5580 nM in [6]; 12300 nM in test [7]. Also, the GI50 is 2900 nM in test [8], 3850 nM in test [9] and 2000 nM in test [10]. Besides, the TGI in test [1] is 31200 nM; in [2], 22600 nM; in test [4], 15900 nM; in test [5] it was 15900 nM; in test [6], > 100000 nM; in test [7] it was 27000 nM. Further, the TGI in test [8] was 13500 nM; in [9] it was 14300 nM; in [10], 9410 nM.

Take `CCC1=C[C@H]2CN(CCc3c([nH]c4ccccc34)[C@@](C(=O)OC)(c3cc4c(cc3OC)N(C)[C@H]3[C@@](O)(C(=O)OC)[C@H](OC(C)=O)[C@]5(CC)[C@@H]6C[C@@H]6CN6CC[C@]43[C@@H]65)C2)C1`: the GI50 was 106 nM in test [1]; 53 nM in test [2]; 22.9 nM in test [4]; 121 nM in test [5]; 11 nM in [6]; 126 nM in [7]. Also, the GI50 in [8] is 54 nM; in [9], 14.3 nM; in test [10] it was 30.9 nM. For the same compound, the TGI in test [1] was 4290 nM; in test [2], 4160 nM; in test [4] it was 3400 nM; in test [5], > 25000 nM; in test [6], 302 nM; in test [7] it was 13100 nM. Also, the TGI turned out to be 179 nM in test [8], 586 nM in [9] and 3220 nM in [10].
